Laboratory results from patent US20240158446A1, “CYCLIC COMPOUND HAVING SELECTIVE INHIBITORY ACTION ON KRAS OVER HRAS AND NRAS” (CHUGAI SEIYAKU KABUSHIKI KAISHA, priority 2021, published 2024).
*1 amine or outer side, *2 acyl side, *3 side chain or, on linkers, in order; H or OH if unused. Where a SMILES comes first, the peptide text is derived from it. Bridges are numbered along the chain shown (N, C = ends). [ ]: non-standard residue; d: D form. The star is where a group is joined. hPhe(3-Cl-4-CF3) = N[C@@H](CCc1ccc(C(F)(F)F)c(Cl)c1)C(=O)O; NPrPhe(4-CF3) = CCCN[C@@H](Cc1ccc(C(F)(F)F)cc1)C(=O)O; X2 = CCCN([C@@H](COC1CCC1)C(=O)[*:2])[*:1]; NMeGly(cPent) = CN[C@H](C(=O)O)C1CCCC1; NMeD = CN[C@@H](CC(=O)O)C(=O)O; NMeL = CN[C@@H](CC(C)C)C(=O)O; NMeNva = CCC[C@H](NC)C(=O)O; Morpholide = C1CN(*)CCO1; NMeA = CN[C@@H](C)C(=O)O; Aze = O=C(O)[C@@H]1CCN1; Ac4c = NC1(C(=O)O)CCC1; NPrGly = CCCNCC(=O)O; Sar = CNCC(=O)O

What was measured:
[1] = system: human lung cancer strain NCI-H441; assay: cells; settings: NCI-H441, 96 h, read-out: NCI-H441 IC50 (nM), NCI-H441 cell proliferation, 4 days, CellTiter-Glo;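 further: cell proliferation inhibition after four days measured by CellTiter-Glo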
[2] = biological target: GDP-bound KRAS wild-type protein (Homo sapiens, UniProt P01116); assay: Binding to KRAS by surface plasmon resonance (SPR), Single Cycle Kinetics; settings: SPR, Single Cycle Kinetics, GDP-bound KRAS wild-type protein; read-out: KRAS KD
Chain of GDP-bound KRAS wild-type protein (P01116 whole entry): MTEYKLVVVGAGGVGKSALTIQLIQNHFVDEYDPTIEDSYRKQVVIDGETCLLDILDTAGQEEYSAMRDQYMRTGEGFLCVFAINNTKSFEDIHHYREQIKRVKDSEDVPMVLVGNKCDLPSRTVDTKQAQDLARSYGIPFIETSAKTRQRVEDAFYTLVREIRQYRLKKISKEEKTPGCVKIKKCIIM

[3] = biological target: GDP-bound NRAS wild-type protein (Homo sapiens, UniProt P01111); assay: Binding to NRAS by surface plasmon resonance (SPR), Single Cycle Kinetics; settings: ratio of KD for GDP-bound NRAS wild-type protein to KD for KRAS, SPR
Chain of GDP-bound NRAS wild-type protein (P01111 whole entry): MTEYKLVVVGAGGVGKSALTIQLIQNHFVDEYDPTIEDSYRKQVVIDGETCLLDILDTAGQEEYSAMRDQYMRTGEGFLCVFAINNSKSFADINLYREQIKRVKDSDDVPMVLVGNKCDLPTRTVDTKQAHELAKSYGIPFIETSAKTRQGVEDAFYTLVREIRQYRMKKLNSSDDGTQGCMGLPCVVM

[4] = biological target: GDP-bound HRAS wild-type protein (Homo sapiens, UniProt P01112); assay: Binding to HRAS by surface plasmon resonance (SPR), Single Cycle Kinetics; settings: ratio of KD for GDP-bound HRAS wild-type protein to KD for KRAS, SPR
Chain of GDP-bound HRAS wild-type protein (P01112 whole entry): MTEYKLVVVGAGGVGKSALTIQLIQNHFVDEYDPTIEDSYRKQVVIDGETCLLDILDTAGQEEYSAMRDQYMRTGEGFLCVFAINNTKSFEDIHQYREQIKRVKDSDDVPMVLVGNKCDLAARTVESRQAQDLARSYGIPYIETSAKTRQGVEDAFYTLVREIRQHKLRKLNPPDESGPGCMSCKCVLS

| SMILES | IC50 [1] [nM] | Kd [2] [nM] | NRAS/KRAS (KD ratio) [3] | HRAS/KRAS (KD ratio) [4] |
| --- | --- | --- | --- | --- |
| CCCN1C(=O)[C@@H]2CCN2C(=O)[C@H](C)N(C)C(=O)[C@H]([C@@H](C)CC)NC(=O)[C@H](CC(C)C)N(C)C(=O)C[C@@H](C(=O)N2CCOCC2)N(C)C(=O)[C@H](C2CCCC2)N(C)C(=O)C2(CCC2)NC(=O)[C@@H]2CCCN2C(=O)[C@H](CCc2ccc(C(F)(F)F)c(Cl)c2)NC(=O)CN(C)C(=O)[C@@H]1COC1CCC1 [PP1818] ([NMeL]I[NMeA][Aze][X2][Sar][hPhe(3-Cl-4-CF3)]P[Ac4c][NMeGly(cPent)][NMeD]-Morpholide; lactam N-11) | 74.8 | 0.9 | C (A compound having a KD ratio of 0.1 or more and less than 3 is denoted as C) | B (a compound having 3 or more and less than 10 is denoted as B) |
| CCCOC[C@H]1C(=O)N[C@@H]([C@@H](C)CC)C(=O)N(C)CC(=O)N(C)[C@H]2C/C=C\CCN(C2=O)[C@@H](Cc2ccc(C(F)(F)F)cc2)C(=O)N(C)CC(=O)N[C@@H](CCc2cc(F)c(C(F)(F)F)c(F)c2)C(=O)N2C[C@H](F)C[C@H]2C(=O)NC2(CC(C)(C)C2)C(=O)N(C)[C@@H](C2CCCC2)C(=O)N(C)[C@H](C(=O)N(C)CC)CC(=O)N1C [PP1697] | 3.6 | 0.047 | A (a compound having 10 or more and less than 20 is denoted as A) | A (a compound having 10 or more and less than 20 is denoted as A) |
| CCCN(C)C(=O)[C@@H]1CC(=O)N(C)[C@@H](COCC)C(=O)N[C@@H]([C@@H](C)CC)C(=O)N(C)CC(=O)N(C)[C@H]2C/C=C\CCN(C2=O)[C@@H](Cc2ccc(C(F)(F)F)cc2)C(=O)N(C)CC(=O)N[C@@H](CCc2ccc(C(F)(F)F)c(OC)c2)C(=O)N2C[C@@H](C)C[C@H]2C(=O)NC2(CC(C)(C)C2)C(=O)N(C)[C@@H](C2CCCC2)C(=O)N1C [PP1991] | 10.8 | 0.15 | A (a compound having 10 or more and less than 20 is denoted as A) | A (a compound having 10 or more and less than 20 is denoted as A) |
| CC[C@H](C)[C@@H]1NC(=O)[C@H](CC)N(C)C(=O)C[C@@H](C(=O)N(C)CC)N(C)C(=O)[C@H](C2CCCC2)N(C)C(=O)C2(CC(C)(C)C2)NC(=O)[C@@H]2C[C@@H](C)CN2C(=O)[C@H](CCc2ccc(C(F)(F)F)c(Cl)c2)NC(=O)CN(C)C(=O)[C@H](Cc2ccc(C)cc2)N2CC/C=C\C[C@@H](C2=O)N(C)C(=O)CN(C)C1=O [PP1876] | 23 | 0.2 | A (a compound having 10 or more and less than 20 is denoted as A) | A (a compound having 10 or more and less than 20 is denoted as A) |
| CC[C@H](C)[C@@H]1NC(=O)[C@H](CC(C)C)N(C)C(=O)C[C@@H](C(=O)N(C)C)N(C)C(=O)[C@H](C2CCCC2)N(C)C(=O)C2(CC(C)(C)C2)NC(=O)[C@@H]2CC(F)(F)CN2C(=O)[C@H](CCc2cc(F)c(C(F)(F)F)c(F)c2)NC(=O)CN(C)C(=O)[C@H](Cc2ccc(C(F)(F)F)cc2)N2CC/C=C\C[C@@H](C2=O)N(C)C(=O)CN(C)C1=O [PP1715] | 2.7 | 0.061 | AA (a compound having 20 or more is denoted as AA) | A (a compound having 10 or more and less than 20 is denoted as A) |
| CCO[C@@H]1C[C@H]2C(=O)NC3(CC(C)(C)C3)C(=O)N(C)[C@@H](C3CCCC3)C(=O)N(C)[C@H](C(=O)N(C)CC)CC(=O)N(C)[C@@H](CC)C(=O)N[C@@H]([C@@H](C)CC)C(=O)N(C)CC(=O)N(C)[C@H]3C/C=C\CCN(C3=O)[C@@H](Cc3ccc(C)cc3)C(=O)N(C)CC(=O)N[C@@H](CCc3ccc(C(F)(F)F)c(Cl)c3)C(=O)N2C1 [PP1880] | 15.6 | 0.15 | A (a compound having 10 or more and less than 20 is denoted as A) | B (a compound having 3 or more and less than 10 is denoted as B) |
| CCO[C@@H]1C[C@H]2C(=O)NC3(CCC3)C(=O)N(C)[C@@H](C3CCCC3)C(=O)N3CCC[C@@H]3CC(=O)N(C)[C@@H](CC3CC3)C(=O)N[C@@H]([C@@H](C)CC)C(=O)N(C)CC(=O)N(C)[C@H]3C/C=C\CCN(C3=O)[C@@H](Cc3ccc(C(F)(F)F)cc3)C(=O)N(C)CC(=O)N[C@@H](CCc3ccc(C(F)(F)F)c(OC)c3)C(=O)N2C1 [PP1616] | 33.5 | 0.29 | B (a compound having 3 or more and less than 10 is denoted as B) | B (a compound having 3 or more and less than 10 is denoted as B) |
| CC[C@H](C)[C@@H]1NC(=O)[C@H](CC)N(C)C(=O)C[C@@H](C(=O)N(C)C)N(C)C(=O)[C@H](C2CCCC2)N(C)C(=O)C2(CCCC2)N(C)C(=O)[C@@H]2CCCN2C(=O)[C@H](CCc2cc(F)c(C(F)(F)F)c(F)c2)NC(=O)CN(C)C(=O)[C@H](Cc2ccc(C)cc2)N2CC/C=C\C[C@@H](C2=O)N(C)C(=O)[C@@H]2CCCN2C1=O [PP1811] | 14.3 | 0.23 | A (a compound having 10 or more and less than 20 is denoted as A) | B (a compound having 3 or more and less than 10 is denoted as B) |
| CCC[C@H]1C(=O)N[C@@H]([C@@H](C)CC)C(=O)N(C)CC(=O)N(C)[C@H]2C/C=C\CCN(C2=O)[C@@H](Cc2ccc(C)cc2)C(=O)N(C)CC(=O)N[C@@H](CCc2cc(F)c(C(F)(F)F)c(F)c2)C(=O)N2C[C@H](C)C[C@H]2C(=O)N(C)C2(CCC2)C(=O)N(C)[C@@H](C2CCCC2)C(=O)N(C)[C@H](C(=O)N(C)C)CC(=O)N1C [PP1799] | 7.6 | 0.068 | B (a compound having 3 or more and less than 10 is denoted as B) | B (a compound having 3 or more and less than 10 is denoted as B) |
| CCC[C@H]1C(=O)N[C@@H]([C@@H](C)CC)C(=O)N(CCC)CC(=O)N(C)CC(=O)N(CCC)[C@@H](Cc2ccc(C(F)(F)F)cc2)C(=O)N(C)CC(=O)N[C@@H](CCc2ccc(C(F)(F)F)c(Cl)c2)C(=O)N2CCC[C@H]2C(=O)NC2(CCC2)C(=O)N(C)[C@@H](C2CCCC2)C(=O)N(C)[C@H](C(=O)N2CCOCC2)CC(=O)N1C [PP1947] ([NMeNva]I[NPrGly][Sar][NPrPhe(4-CF3)][Sar][hPhe(3-Cl-4-CF3)]P[Ac4c][NMeGly(cPent)][NMeD]-Morpholide; lactam N-11) | 22 | 0.37 | B (a compound having 3 or more and less than 10 is denoted as B) | B (a compound having 3 or more and less than 10 is denoted as B) |
| CCCN1C(=O)CN(C)C(=O)CN(C)C(=O)[C@H]([C@@H](C)CC)NC(=O)[C@H](CC(C)C)N(C)C(=O)C[C@@H](C(=O)N2CCOCC2)N(C)C(=O)[C@H](C2CCCC2)N(C)C(=O)C2(CCC2)NC(=O)[C@H](C)N(C)C(=O)[C@H](CCc2ccc(C(F)(F)F)c(Cl)c2)NC(=O)CN(C)C(=O)[C@@H]1Cc1ccc(C(F)(F)F)cc1 [PP1916] ([NMeL]I[Sar][Sar][NPrPhe(4-CF3)][Sar][hPhe(3-Cl-4-CF3)][NMeA][Ac4c][NMeGly(cPent)][NMeD]-Morpholide; lactam N-11) | 16.8 | 0.49 | B (a compound having 3 or more and less than 10 is denoted as B) | C (A compound having a KD ratio of 0.1 or more and less than 3 is denoted as C) |
| CC[C@H](C)[C@@H]1NC(=O)[C@H](C)N(C)C(=O)C[C@@H](C(=O)N(C)C)N(C)C(=O)[C@H](C2CCCC2)N(C)C(=O)C2(CC(C)(C)C2)NC(=O)[C@@H]2CC(F)(F)CN2C(=O)[C@H](CCc2cc(F)c(C(F)(F)F)c(F)c2)NC(=O)CN(C)C(=O)[C@H](Cc2ccc(C(F)(F)F)cc2)N2CC/C=C\C[C@@H](C2=O)N(C)C(=O)CN(C)C1=O [PP1707] | 7.4 | 0.037 | AA (a compound having 20 or more is denoted as AA) | A (a compound having 10 or more and less than 20 is denoted as A) |
| CCO[C@@H]1C[C@H]2C(=O)NC3(CC(C)(C)C3)C(=O)N(C)[C@@H](C3CCCC3)C(=O)N(C)[C@H](C(=O)N(C)C)CC(=O)N(C)[C@@H](C)C(=O)N[C@@H]([C@@H](C)CC)C(=O)N(C)CC(=O)N(C)[C@H]3C/C=C\CCN(C3=O)[C@@H](Cc3ccc(C(F)(F)F)cc3)C(=O)N(C)CC(=O)N[C@@H](CCc3ccc(C(F)(F)F)c(OC)c3)C(=O)N2C1 [PP1674] | 5.1 | 0.036 | A (a compound having 10 or more and less than 20 is denoted as A) | A (a compound having 10 or more and less than 20 is denoted as A) |
| CCC[C@H]1C(=O)N[C@@H]([C@@H](C)CC)C(=O)N(C)CC(=O)N(C)[C@H]2C/C=C\CCN(C2=O)[C@@H](Cc2ccc(C(F)(F)F)cc2)C(=O)N(C)CC(=O)N[C@@H](CCc2cc(F)c(C(F)(F)F)c(F)c2)C(=O)N(CC)CC(=O)NC2(CC(C)(C)C2)C(=O)N(C)[C@@H](C2CCCC2)C(=O)N(C)[C@H](C(=O)N(C)C)CC(=O)N1C [PP1777] | 79.3 | 0.36 | A (a compound having 10 or more and less than 20 is denoted as A) | B (a compound having 3 or more and less than 10 is denoted as B) |
| CCCN(C)C(=O)[C@@H]1CC(=O)N(C)[C@@H](CC(F)F)C(=O)N[C@@H]([C@@H](C)CC)C(=O)N(C)CC(=O)N(C)[C@H]2C/C=C\CCN(C2=O)[C@@H](Cc2ccc(C(F)(F)F)cc2)C(=O)N(C)CC(=O)N[C@@H](CCc2cc(F)c(C(F)(F)F)c(F)c2)C(=O)N2CCC[C@H]2C(=O)NC2(CC(C)(C)C2)C(=O)N(C)[C@@H](C2CCCC2)C(=O)N1C [PP1721] | 10 | 0.3 | A (a compound having 10 or more and less than 20 is denoted as A) | A (a compound having 10 or more and less than 20 is denoted as A) |
